Legend:
[1] = test system: JAK1/TYK2 pSTAT5 (Tyr694/699) in THP-1 cell line; experiment: IFNa-stimulated JAK1/TYK2 pSTAT5 (Tyr694/699) inhibition cellular assay, AlphaLISA; type: cell-based; details: Homo sapiens; THP-1 cells, IFNa-stimulated, AlphaLISA (Assay B); read-out: Cellular_THP1_IFNa-pSTATS_TYK2
Procedure, shortened: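 pSTAT5 (Tyr694/699) in lysates quantified by AlphaLISA (615 nm) after 30 min IFNa stimulation (100 ng/mL stock) of THP-1 cells. The cells, 2e4 per well in HBSS, had first been exposed 1 h at 37° C. to eight 6-fold compound dilutions, 10000 down to 0.04 nM final. IC50 fitted by 4PL regression, bottom 0, Hill slope −1.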

TYK2 JH2 = biological target: T1, TYK2 JH2 (Homo sapiens, UniProt P29597); experiment: TYK2 JH2 binding assay (KINOMEscan KdELECT competitive binding); details: TYK2 JH2 domain, DiscoverX KINOMEscan KdELECT (Assay A); read-out: Biochemical TYK2_DiscoverX_JH2_BND_Kd
T1 construct: purchased DiscoverX (KINOMEscan KdELECT service); host or cells: E. coli BL21-derived (T7 phage display) or HEK-293
T1 sequence (P29597 589-875 limits assumed): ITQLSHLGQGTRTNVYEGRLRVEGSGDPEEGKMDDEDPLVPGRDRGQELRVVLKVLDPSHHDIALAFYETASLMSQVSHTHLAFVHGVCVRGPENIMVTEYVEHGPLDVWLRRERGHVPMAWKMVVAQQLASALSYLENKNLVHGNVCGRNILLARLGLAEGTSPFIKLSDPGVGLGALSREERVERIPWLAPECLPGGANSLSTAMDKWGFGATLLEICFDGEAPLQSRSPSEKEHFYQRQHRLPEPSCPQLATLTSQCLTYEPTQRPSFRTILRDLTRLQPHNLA
Procedure, shortened: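 Test compounds were titrated in 11 three-fold steps against JH2 fragment captured on ligand-loaded magnetic beads, with 1 h incubation at room temperature and DMSO at 0.9%. Eluted kinase was quantified by qPCR, and Kd was fitted from the dose series.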

| Compound | IC50 [1] [nM] | Kd (TYK2 JH2) [nM] |
| --- | --- | --- |
| CNc1ncc(-c2nc3cc(O[C@H]4C[C@@H](OC)C4)ccc3o2)c2cc(NC(=O)C3CC3)ncc12 [Example 200, N-(5-(5-((1s,3s)-3-methoxycyclobutoxy)benzo[d]oxazol-2-yl)-8-(methylamino)-2,7-naphthyridin-3-yl)cyclopropanecarboxamide] | ≤ 500 | ≤ 100 |
| CNc1ncc(-c2nc3c(COC)cccc3o2)c2cc(NC(=O)C3CC3)ncc12 [Example 201, N-(5-(4-(methoxymethyl)benzo[d]oxazol-2-yl)-8-(methylamino)-2,7-naphthyridin-3-yl)cyclopropanecarboxamide] | ≤ 500 | ≤ 100 |
| CNc1ncc(-c2nc3cc(OC)c(OC)cc3o2)c2cc(NC(=O)C3CC3)ncc12 [Example 202, N-(5-(5,6-dimethoxybenzo[d]oxazol-2-yl)-8-(methylamino)-2,7-naphthyridin-3-yl)cyclopropanecarboxamide] | ≤ 500 | ≤ 100 |
| CNc1ncc(-c2nc3ccc(OC)cc3o2)c2cc(NC(=O)C3CC3)ncc12 [Example 203, N-(5-(6-methoxybenzo[d]oxazol-2-yl)-8-(methylamino)-2,7-naphthyridin-3-yl)cyclopropanecarboxamide] | ≤ 500 | ≤ 100 |
| CNc1ncc(-c2nc3c(Cl)cccc3o2)c2cc(NC(=O)C3CC3)ncc12 [Example 204, N-(5-(4-chlorobenzo[d]oxazol-2-yl)-8-(methylamino)-2,7-naphthyridin-3-yl)cyclopropanecarboxamide] | ≤ 500 | ≤ 100 |
| CNc1ncc(-c2nc3cccc(C)c3o2)c2cc(NC(=O)C3CC3)ncc12 [Example 205, N-(8-(methylamino)-5-(7-methylbenzo[d]oxazol-2-yl)-2,7-naphthyridin-3-yl)cyclopropanecarboxamide] | ≤ 500 | ≤ 100 |
| CNc1ncc(-c2nc3ccc(C)cc3o2)c2cc(NC(=O)C3CC3)ncc12 [Example 206, N-(8-(methylamino)-5-(6-methylbenzo[d]oxazol-2-yl)-2,7-naphthyridin-3-yl)cyclopropanecarboxamide] | ≤ 500 | ≤ 100 |
| CNc1ncc(-c2nc3cc(C)ccc3o2)c2cc(NC(=O)C3CC3)ncc12 [Example 207, N-(8-(methylamino)-5-(5-methylbenzo[d]oxazol-2-yl)-2,7-naphthyridin-3-yl)cyclopropanecarboxamide] | ≤ 500 | ≤ 100 |
| CNc1ncc(-c2nc3cccc(OC)c3o2)c2cc(NC(=O)C3CC3)ncc12 [Example 208, N-(5-(7-methoxybenzo[d]oxazol-2-yl)-8-(methylamino)-2,7-naphthyridin-3-yl)cyclopropanecarboxamide] | ≤ 500 | ≤ 100 |
| CNc1ncc(-c2nc3cc(Br)ccc3o2)c2cc(NC(=O)C3CC3)ncc12 [Example 209, N-(5-(5-bromobenzo[d]oxazol-2-yl)-8-(methylamino)-2,7-naphthyridin-3-yl)cyclopropanecarboxamide] | ≤ 500 | ≤ 100 |
| CNc1ncc(-c2nc3cc(C#N)ccc3o2)c2cc(NC(=O)C3CC3)ncc12 [Example 210, N-(5-(5-cyanobenzo[d]oxazol-2-yl)-8-(methylamino)-2,7-naphthyridin-3-yl)cyclopropanecarboxamide] | ≤ 500 | ≤ 100 |
| CNc1ncc(-c2nc3cccc(Cl)c3o2)c2cc(NC(=O)C3CC3)ncc12 [Example 211, N-(5-(7-chlorobenzo[d]oxazol-2-yl)-8-(methylamino)-2,7-naphthyridin-3-yl)cyclopropanecarboxamide] | ≤ 500 | ≤ 100 |
| CNc1ncc(-c2nc3cc(Cl)ccc3o2)c2cc(NC(=O)C3CC3)ncc12 [Example 212, N-(5-(5-chlorobenzo[d]oxazol-2-yl)-8-(methylamino)-2,7-naphthyridin-3-yl)cyclopropanecarboxamide] | ≤ 500 | ≤ 100 |
| CNc1ncc(-c2nc3ccc(C#N)cc3o2)c2cc(NC(=O)C3CC3)ncc12 [Example 213, N-(5-(6-cyanobenzo[d]oxazol-2-yl)-8-(methylamino)-2,7-naphthyridin-3-yl)cyclopropanecarboxamide] | ≤ 500 | ≤ 100 |
| CNc1ncc(-c2nc3cc(C(=O)O)ccc3o2)c2cc(NC(=O)C3CC3)ncc12 [Example 214, 2-(6-(cyclopropanecarboxamido)-1-(methylamino)-2,7-naphthyridin-4-yl)benzo[d]oxazole-5-carboxylic acid] | > 500 | ≤ 100 |
| CNc1ncc(-c2nc3c(O)cccc3o2)c2cc(NC(=O)C3CC3)ncc12 [Example 215, N-(5-(4-hydroxybenzo[d]oxazol-2-yl)-8-(methylamino)-2,7-naphthyridin-3-yl)cyclopropanecarboxamide] | ≤ 500 | ≤ 100 |
| CNc1ncc(-c2nc3cc(C(C)=O)ccc3o2)c2cc(NC(=O)C3CC3)ncc12 [Example 216, N-(5-(5-acetylbenzo[d]oxazol-2-yl)-8-(methylamino)-2,7-naphthyridin-3-yl)cyclopropanecarboxamide] | ≤ 500 | ≤ 100 |
| CNc1ncc(-c2nc3cc(C(F)(F)F)ccc3o2)c2cc(NC(=O)C3CC3)ncc12 [Example 217, N-(8-(methylamino)-5-(5-(trifluoromethyl)benzo[d]oxazol-2-yl)-2,7-naphthyridin-3-yl)cyclopropanecarboxamide] | ≤ 500 | ≤ 100 |
| CNc1ncc(-c2nc3cc(OC(F)(F)F)ccc3o2)c2cc(NC(=O)C3CC3)ncc12 [Example 218, N-(8-(methylamino)-5-(5-(trifluoromethoxy)benzo[d]oxazol-2-yl)-2,7-naphthyridin-3-yl)cyclopropanecarboxamide] | ≤ 500 | ≤ 100 |
| CNc1ncc(-c2nc3ccc(Cl)cc3o2)c2cc(NC(=O)C3CC3)ncc12 [Example 219, N-(5-(6-chlorobenzo[d]oxazol-2-yl)-8-(methylamino)-2,7-naphthyridin-3-yl)cyclopropanecarboxamide] | ≤ 500 | ≤ 100 |
| CNc1ncc(-c2nc3c(N4CCC4COC)cccc3o2)c2cc(NC(=O)C3CC3)ncc12 (stereo not drawn) [Example 220, N-(5-(4-(2-(methoxymethyl)azetidin-1-yl)benzo[d]oxazol-2-yl)-8-(methylamino)-2,7-naphthyridin-3-yl)cyclopropanecarboxamide] | > 500 | ≤ 100 |
| CNc1ncc(-c2nc3c(N4CC(OC)C4)cccc3o2)c2cc(NC(=O)C3CC3)ncc12 [Example 221, N-(5-(4-(3-methoxyazetidin-1-yl)benzo[d]oxazol-2-yl)-8-(methylamino)-2,7-naphthyridin-3-yl)cyclopropanecarboxamide] | ≤ 500 | ≤ 100 |
| CNc1ncc(-c2nc3c(OC4CC4)cccc3o2)c2cc(NC(=O)C3CC3)ncc12 [Example 222, N-(5-(4-cyclopropoxybenzo[d]oxazol-2-yl)-8-(methylamino)-2,7-naphthyridin-3-yl)cyclopropanecarboxamide] | ≤ 500 | ≤ 100 |
| CNc1ncc(-c2nc3cc(OC4CC4)ccc3o2)c2cc(NC(=O)C3CC3)ncc12 [Example 223, N-(5-(5-cyclopropoxybenzo[d]oxazol-2-yl)-8-(methylamino)-2,7-naphthyridin-3-yl)cyclopropanecarboxamide] | ≤ 500 | ≤ 100 |
| CNc1ncc(-c2nc3c(OC)c(OC)ccc3o2)c2cc(NC(=O)C3CC3)ncc12 [Example 224, N-(5-(4,5-dimethoxybenzo[d]oxazol-2-yl)-8-(methylamino)-2,7-naphthyridin-3-yl)cyclopropanecarboxamide] | ≤ 500 | ≤ 100 |
| CNc1ncc(-c2nc3cc(OC(F)F)ccc3o2)c2cc(NC(=O)C3CC3)ncc12 [Example 225, N-(5-(5-(difluoromethoxy)benzo[d]oxazol-2-yl)-8-(methylamino)-2,7-naphthyridin-3-yl)cyclopropanecarboxamide] | ≤ 500 | ≤ 100 |
| CNc1ncc(-c2nc3cc(OCC4CC4)ccc3o2)c2cc(NC(=O)C3CC3)ncc12 [Example 226, N-(5-(5-(cyclopropylmethoxy)benzo[d]oxazol-2-yl)-8-(methylamino)-2,7-naphthyridin-3-yl)cyclopropanecarboxamide] | ≤ 500 | ≤ 100 |
| CNc1ncc(-c2nc3cc(OCCC#N)ccc3o2)c2cc(NC(=O)C3CC3)ncc12 [Example 227, N-(5-(5-(2-cyanoethoxy)benzo[d]oxazol-2-yl)-8-(methylamino)-2,7-naphthyridin-3-yl)cyclopropanecarboxamide] | ≤ 500 | ≤ 100 |
| CNc1ncc(-c2nc3cc(OC4COC4)ccc3o2)c2cc(NC(=O)C3CC3)ncc12 [Example 228, N-(8-(methylamino)-5-(5-(oxetan-3-yloxy)benzo[d]oxazol-2-yl)-2,7-naphthyridin-3-yl)cyclopropanecarboxamide] | ≤ 500 | ≤ 100 |
| CNc1ncc(-c2nc3cc(OC4CCOC4)ccc3o2)c2cc(NC(=O)C3CC3)ncc12 (stereo not drawn) [Example 229, N-(8-(methylamino)-5-(5-((tetrahydrofuran-3-yl)oxy)benzo[d]oxazol-2-yl)-2,7-naphthyridin-3-yl)cyclopropanecarboxamide] | ≤ 500 | ≤ 100 |
